Data as given in patent publication US11291654B2, “Formulations of cycloserine compounds and applications thereof” (SyneuRx International (Taiwan) Corp., priority 2018, dated 2022).
Like-named read-outs stand apart in the source and are kept apart here.

Format: physicochemical
Description: 1. Stress Testing of D-cycloserine Stability test was held with 500 mg of commercially available D-cycloserine from Macleods Pharma, opened and stored under high humidity (>90% RH or 75% RH) at room temperature, a high temperature (40° C. or 60° C.) or a light condition for 10 days. […] In the following experiments, the total impurity was set up to confirm the stability of D-cycloserine.

N[C@H]1CONC1=O (stereo in doubt) [D-cycloserine (Macleods Pharma), 4-amino-3-isoxazolidinone]
Appearance (0 day): White Powder
Total Impurity (%) (0 day): 0.59%
Moisture-absorption Weight Gain (%) (25° C., 75% RH, 10 days): 0.25%
Total Impurity (%) (25° C., 75% RH, 10 days): 1.71%
Moisture-absorption Weight Gain (%) (25° C., >90% RH, 10 days): 21.11%
Total Impurity (%) (25° C., >90% RH, 10 days): 86.64%
Appearance (40° C., 10 days): White Powder
Total Impurity (%) (40° C., 10 days): 0.70%
Appearance (60° C., 10 days): White Powder
Total Impurity (%) (60° C., 10 days): 0.66%
Stability (in words) (10 days): relatively stable at 40 °C and 60 °C
Appearance (Light, 10 days): White Powder
Total Impurity (%) (Light, 10 days): 0.96%
